Experimental data as given in patent US9914731B2, “Pyrazolo[1,5-a]pyridine derivatives and methods of their use” (Ignyta, Inc., priority 2013, dated 2018).

molecular target: recombinant human baculovirus-expressed cMET (Homo sapiens (Human), UniProt P08581); experiment: c-MET kinase assay (HTRF KinEASE); format: biochemical; conditions: not given

Molecule | IC50
O=C(Nc1ccc(Oc2cccn3nccc23)c(F)c1)C1CCN(c2ccc(F)cc2)C1=O (stereo not drawn) [Example 10, 1-(4-Fluoro-phenyl)-2-oxo-pyrrolidine-3-carboxylic acid [3-fluoro-4-(pyrazolo[1,5-a]pyridin-4-yloxy)-phenyl]-amide] | 10 to 100 nM

same assay, conditions: average of two or more determinations; read-out: c-MET IC50

IC50 | Molecule
< 10 nM | O=C(Nc1ccc(Oc2cccn3nccc23)cc1)c1cccn(-c2ccc(F)cc2)c1=O [Example 1, 1-(4-Fluoro-phenyl)-2-oxo-1,2-dihydro-pyridine-3-carboxylic acid [4-(pyrazolo[1,5-a]pyridin-4-yloxy)-phenyl]-amide]
< 10 nM | O=C(Nc1ccc(Oc2cccn3nccc23)c(F)c1)c1cccn(-c2ccc(F)cc2)c1=O [Example 4, 1-(4-Fluoro-phenyl)-2-oxo-1,2-dihydro-pyridine-3-carboxylic acid [3-fluoro-4-(pyrazolo[1,5-a]pyridin-4-yloxy)-phenyl]-amide]
< 10 nM | O=C(Nc1ccc(F)cc1)C1(C(=O)Nc2ccc(Oc3cccn4nccc34)c(F)c2)CC1 [Example 5, Cyclopropane-1,1-dicarboxylic acid (4-fluoro-phenyl)-amide [3-fluoro-4-(pyrazolo[1,5-a]pyridin-4-yloxy)-phenyl]-amide]
10 to 100 nM | O=C(Cc1ccc(F)cc1)NC(=S)Nc1ccc(Oc2cccn3nccc23)c(F)c1 [Example 6, 1-[2-(4-Fluoro-phenyl)-acetyl]-3-[3-fluoro-4-(pyrazolo[1,5-a]pyridin-4-yloxy)-phenyl]-thiourea]
10 to 100 nM | O=C(Nc1ccc(Oc2cccn3nccc23)c(F)c1)c1c[nH]c(=O)n(-c2ccc(F)cc2)c1=O [Example 11, 3-(4-Fluoro-phenyl)-2,4-dioxo-1,2,3,4-tetrahydro-pyrimidine-5-carboxylic acid [3-fluoro-4-(pyrazolo[1,5-a]pyridin-4-yloxy)-phenyl]-amide]
10 to 100 nM | O=C(Nc1ccc(Oc2cccn3nccc23)c(F)c1)c1c(I)ccn(-c2ccc(F)cc2)c1=O [Example 12, 1-(4-Fluoro-phenyl)-4-iodo-2-oxo-1,2-dihydro-pyridine-3-carboxylic acid [3-fluoro-4-(pyrazolo[1,5-a]pyridin-4-yloxy)-phenyl]-amide]
< 10 nM | CCOc1ccn(-c2ccc(F)cc2)c(=O)c1C(=O)Nc1ccc(Oc2cccn3nccc23)c(F)c1 [Example 13, 4-Ethoxy-1-(4-fluoro-phenyl)-2-oxo-1,2-dihydro-pyridine-3-carboxylic acid [3-fluoro-4-(pyrazolo[1,5-a]pyridin-4-yloxy)-phenyl]-amide]
10 to 100 nM | CCOCCOc1ccn(-c2ccc(F)cc2)c(=O)c1C(=O)Nc1ccc(Oc2cccn3nccc23)c(F)c1 [Example 14, 4-(2-Ethoxy-ethoxy)-1-(4-fluoro-phenyl)-2-oxo-1,2-dihydro-pyridine-3-carboxylic acid [3-fluoro-4-(pyrazolo[1,5-a]pyridin-4-yloxy)-phenyl]-amide]
10 to 100 nM | CCNc1ccn(-c2ccc(F)cc2)c(=O)c1C(=O)Nc1ccc(Oc2cccn3nccc23)c(F)c1 [Example 15, 4-Ethylamino-1-(4-fluoro-phenyl)-2-oxo-1,2-dihydro-pyridine-3-carboxylic acid [3-fluoro-4-(pyrazolo[1,5-a]pyridin-4-yloxy)-phenyl]-amide]
1000 to 10000 nM | Cc1c(C(=O)Nc2ccc(Oc3cccn4nccc34)cc2)cnn1-c1ccc(F)cc1 [Example 18, 1-(4-Fluoro-phenyl)-5-methyl-1H-pyrazole-4-carboxylic acid [4-(pyrazolo[1,5-a]pyridin-4-yloxy)-phenyl]-amide]
1000 to 10000 nM | O=C(Nc1ccc(Oc2cccn3nccc23)cc1)c1cnn(-c2ccccc2)c1C(F)(F)F [Example 19, 1-Phenyl-5-trifluoromethyl-1H-pyrazole-4-carboxylic acid [4-(pyrazolo[1,5-a]pyridin-4-yloxy)-phenyl]-amide]
1000 to 10000 nM | Cc1nn(-c2ccccc2)c(C)c1C(=O)Nc1ccc(Oc2cccn3nccc23)cc1 [Example 20, 3,5-Dimethyl-1-phenyl-1H-pyrazole-4-carboxylic acid [4-(pyrazolo[1,5-a]pyridin-4-yloxy)-phenyl]-amide]
101 to 1000 nM | COc1cc(Oc2ccc(NC(=O)c3cccn(-c4ccc(F)cc4)c3=O)cc2F)c2ccnn2c1 [Example 22, 1-(4-Fluoro-phenyl)-2-oxo-1,2-dihydro-pyridine-3-carboxylic acid [3-fluoro-4-(6-methoxy-pyrazolo[1,5-a]pyridin-4-yloxy)-phenyl]-amide]
101 to 1000 nM | O=C(Nc1ccc(Oc2cccn3ncc(Cl)c23)c(F)c1)c1cccn(-c2ccc(F)cc2)c1=O [Example 23, 1-(4-Fluoro-phenyl)-2-oxo-1,2-dihydro-pyridine-3-carboxylic acid [4-(3-chloro-pyrazolo[1,5-a]pyridin-4-yloxy)-3-fluoro-phenyl]-amide]
< 10 nM | O=C(Nc1ccc(Oc2cc(Br)cn3nccc23)c(F)c1)c1cccn(-c2ccc(F)cc2)c1=O [Example 24, (4-Fluoro-phenyl)-2-oxo-1,2-dihydro-pyridine-3-carboxylic acid [4-(6-bromo-pyrazolo[1,5-a]pyridin-4-yloxy)-3-fluoro-phenyl]-amide]
< 10 nM | Cn1cc(-c2cc(Oc3ccc(NC(=O)C4(C(=O)Nc5ccc(F)cc5)CC4)cc3F)c3ccnn3c2)cn1 [Example 32, Cyclopropane-1,1-dicarboxylic acid {3-fluoro-4-[6-(1-methyl-1H-pyrazol-4-yl)-pyrazolo[1,5-a]pyridin-4-yloxy]-phenyl}-amide(4-fluoro-phenyl)-amide]
< 10 nM | CN1CCN(c2ccc(-c3cc(Oc4ccc(NC(=O)C5(C(=O)Nc6ccc(F)cc6)CC5)cc4F)c4ccnn4c3)cn2)CC1 [Example 36, Cyclopropane-1,1-dicarboxylic acid (3-fluoro-4-{6-[6-(4-methyl-piperazin-1-yl)-pyridin-3-yl]-pyrazolo[1,5-a]pyridin-4-yloxy}-phenyl)-amide (4-fluoro-phenyl)-amide]
< 10 nM | CN1CCN(c2ccc(-c3cc(Oc4ccc(NC(=O)c5cccn(-c6ccc(F)cc6)c5=O)cc4F)c4ccnn4c3)cn2)CC1 [Example 37, 1-(4-Fluoro-phenyl)-2-oxo-1,2-dihydro-pyridine-3-carboxylic acid (3-fluoro-4-{6-[6-(4-methyl-piperazin-1-yl)-pyridin-3-yl]-pyrazolo[1,5-a]pyridin-4-yloxy}-phenyl)-amide]
< 10 nM | CN1CCN(c2cc(Oc3ccc(NC(=O)c4cccn(-c5ccc(F)cc5)c4=O)cc3F)c3ccnn3c2)CC1 [Example 38, 1-(4-Fluoro-phenyl)-2-oxo-1,2-dihydro-pyridine-3-carboxylic acid {3-fluoro-4-[6-(4-methyl-piperazin-1-yl)-pyrazolo[1,5-a]pyridin-4-yloxy]-phenyl}-amide]
< 10 nM | Cn1nccc1-c1cc(Oc2ccc(NC(=O)c3cccn(-c4ccc(F)cc4)c3=O)cc2F)c2ccnn2c1 [Example 41, 1-(4-Fluoro-phenyl)-2-oxo-1,2-dihydro-pyridine-3-carboxylic acid{3-fluoro-4-[6-(2-methyl-2H-pyrazol-3-yl)-pyrazolo[1,5-a]pyridine-4-yloxy]-phenyl}-amide]
< 10 nM | O=C(Nc1ccc(Oc2cc(C3CCOCC3)cn3nccc23)c(F)c1)c1cccn(-c2ccc(F)cc2)c1=O [Example 47, 1-(4-Fluoro-phenyl)-2-oxo-1,2-dihydro-pyridine-3-carboxylic acid{3-fluoro-4-[6-(tetrahydro-pyran-4-yl)-pyrazolo[1,5-a]pyridin-4-yloxy]-phenyl}-amide]
< 10 nM | Cc1noc(C)c1-c1cc(Oc2ccc(NC(=O)c3cccn(-c4ccc(F)cc4)c3=O)cc2F)c2ccnn2c1 [Example 48, 1-(4-Fluoro-phenyl)-2-oxo-1,2-dihydro-pyridine-3-carboxylic acid{4-[6-(3,5-dimethyl-isoxazol-4-yl)-pyrazolo[1,5-a]pyridin-4-yloxy]-3-fluoro-phenyl}-amide]
< 10 nM | Cc1ccc(C(=O)Nc2ccc(Oc3cc(C4CCS(=O)(=O)CC4)cn4nccc34)c(F)c2)c(=O)n1-c1ccc(F)cc1 [Example 50, 1-(4-Fluoro-phenyl)-6-methyl-2-oxo-1,2-dihydro-pyridine-3-carboxylic acid {4-[6-(1,1-dioxo-hexahydro-thiopyran-4-yl)-pyrazolo[1,5-a]pyridin-4-yloxy]-3-fluoro-phenyl}-amide]
< 10 nM | CCn1cc(C(=O)Nc2ccc(Oc3cc(-c4cnco4)cn4nccc34)c(F)c2)c(=O)n(-c2ccc(F)cc2)c1=O [Example 52, 1-Ethyl-3-(4-fluoro-phenyl)-2,4-dioxo-1,2,3,4-tetrahydro-pyrimidine-5-carboxylic acid[3-fluoro-4-(6-oxazol-5-yl-pyrazolo[1,5-a]pyridin-4-yloxy)-phenyl]-amide]
< 10 nM | O=C(Nc1ccc(Oc2cc(-c3cnsc3)cn3nccc23)c(F)c1)c1cccn(-c2ccc(F)cc2)c1=O [Example 53, 1-(4-Fluoro-phenyl)-2-oxo-1,2-dihydro-pyridine-3-carboxylic acid[3-fluoro-4-(6-isothiazol-4-yl-pyrazolo[1,5-a]pyridin-4-yloxy)-phenyl]-amide]

Molecule | IC50
1-Methyl-5-trifluoromethyl-1H-pyrazole-4-carboxylic acid [4-(pyrazolo[1, 5-a]pyridin-4-yloxy)-phenyl]-amide [Example 17] | 1000 to 10000 nM
O=C(Nc1ccc(Oc2cccn3nccc23)c(F)c1)c1cccn(Cc2ccc(F)cc2)c1=O [Example 8, 1-(4-Fluoro-benzyl)-2-oxo-1,2-dihydro-pyridine-3-carboxylic acid [3-fluoro-4-(pyrazolo[1,5-a]pyridin-4-yloxy)-phenyl]-amide] | 101 to 1000 nM
O=C(Nc1ccc(Oc2cccn3nccc23)c(F)c1)c1cccn(Cc2cccc(F)c2)c1=O [Example 9, 1-(3-Fluoro-benzyl)-2-oxo-1,2-dihydro-pyridine-3-carboxylic acid [3-fluoro-4-(pyrazolo[1,5-a]pyridin-4-yloxy)-phenyl]-amide] | 101 to 1000 nM

same assay, conditions: read-out: c-MET IC50

Molecule | IC50
COc1ccc(-c2cc(Oc3ccc(NC(=O)c4cccn(-c5ccc(F)cc5)c4=O)cc3F)c3ccnn3c2)cn1 [Example 35, 1-(4-Fluoro-phenyl)-2-oxo-1,2-dihydro-pyridine-3-carboxylic acid {3-fluoro-4-[6-(6-methoxy-pyridin-3-yl)-pyrazolo[1,5-a]pyridin-4-yloxy]-phenyl}-amide] | < 10 nM
